Data: a melting point compilation (Tetko et al.; mined from patent text by program, amines drawn as free bases though some values may be those of a salt)

For `Cc1nc2c(o1)CCc1ccccc1C2=O`, the melting point was 174 to 176 °C.
Compound `Cc1nc(-c2ccccc2)nc(-c2ccncc2)c1CO` has a melting point of 175 to 176 °C.
`CC(=O)SCC(C)C1CCC2C3CCC4=C(N)C(=O)CCC4(C)C3CCC12C` (configuration not stated) showed a melting point of 173 to 176 °C.
`CC(=O)OC1CSC(Oc2cnccc2C(F)(F)F)C(OC(C)=O)C1OC(C)=O` (configuration not stated) gave a melting point of 198 °C.
For `Cc1nc(Nc2ccc(C(C)C)cc2Br)c([N+](=O)[O-])c(-c2ccccc2C(F)(F)F)n1`, the melting point was 146 °C.
In the case of `CCCCS(=O)(=O)NC(=O)N1CC1C#N` (configuration not stated), the melting point is reported as 80 to 85 °C.
For `CCCNC(=S)NS(=O)(=O)c1cc2c(cc1OC)OCCC2CNC(=O)c1cc(Cl)ccc1OC` (configuration not stated), the melting point was 183 to 184 °C.
For `CC(=O)Nc1c(C(=O)c2ccccc2)[nH]c2ccc([N+](=O)[O-])cc12`, the melting point was 210 to 212 °C.
In the case of `CCCc1nc2c(N)nc3cccnc3c2n1CCCCS(=O)(=O)NC`, the melting point is reported as 174 to 175 °C.
In the case of `Clc1ccc(-c2ncc3nc(Cl)cc(Cl)n23)cc1`, the melting point is reported as 203 to 205 °C.
`CCc1c(-c2ccccc2)ncc2c(N3CCCCC3)nnc(N3CCCCC3)c12` showed a melting point of 64 to 65 °C.
`O=C(c1ccccc1)N1C(=O)c2cccnc2Nc2ccccc21` gave a melting point of 198 to 201 °C.
`CN1CC=C(c2ccccc2Cc2ccccc2)CC1` gave a melting point of 55 to 57 °C.
`COC1CCC(O)C(COS(=O)(=O)c2ccc(C)cc2)O1` (configuration not stated) showed a melting point of 100 to 102 °C.
Compound `Fc1ccc(OC(CN2CCN(c3ccccc3)CC2)c2ccccc2)cc1` (configuration not stated) has a melting point of 80 to 82 °C.
In the case of `NC(=O)CCC(C(N)=O)c1ccc(F)cc1` (configuration not stated), the melting point is reported as 154 to 157 °C.
Compound `CN1CCSC1=NC(=Nc1ccccc1)N1CCCCC1` has a melting point of 122 to 124 °C.
`COc1cc(OC)nc(Oc2cccc(NC(=O)C(C)(C)C)c2C(=O)O)n1` gave a melting point of 192 to 195 °C.
Compound `CC(C)(C)c1nc2cc(N3CCCCC3)c([N+](=O)[O-])cc2s1` has a melting point of 147 to 148 °C.
`O=c1[nH]c2ccc(Cl)cc2n1CCCN1CCN(C(c2ccccc2)c2ccccc2)CC1` showed a melting point of 132 °C.
With `N#Cc1ccc(N(N)Cc2ccc(Br)cc2)cc1` the melting point was 90 °C.
`CC(C)(C)NC(=O)NOCC(O)CN1CCCCC1` (configuration not stated) gave a melting point of 71 to 73 °C.
`COC(=O)c1ccc2c(nc(C)n2C)c1C1=NC(C)(C(C)C)C(=O)N1` (configuration not stated) gave a melting point of 240 to 242 °C.
In the case of `C=CCn1cc(F)cnc1=O`, the melting point is reported as 88 to 90 °C.
For `O=C(CCl)CCc1ccc(Cl)cc1`, the melting point was 65 to 67 °C.
For `Oc1ccc(Cc2ccc(OCc3ccccc3)cc2)cc1`, the melting point was 95 to 96 °C.
Work on `CCC(C)n1ncn(-c2ccc(N3CCN(c4ccc(OC)cc4)CC3)cn2)c1=O` (configuration not stated) yielded a melting point of 139 to 140 °C.
In the case of `CCOC(=O)c1nc2scc(C)n2c1C`, the melting point is reported as 141 to 142 °C.
With `Cc1noc(NS(=O)(=O)c2cc(Cl)c(Cl)s2)c1Br` the melting point was 135 to 138 °C.
`CC12CCC3(CC1CCC1C2CCC2(C)C(N)C(O)CC12)OCCO3` (configuration not stated) gave a melting point of 254 to 258 °C.
Work on `NC(=O)c1c(N)nn(-c2ccccc2)c1N` yielded a melting point of 182 to 183 °C.
`CN1CCN(C[C@H]2C(=O)Nc3ccccc3S[C@H]2c2ccccc2)CC1` (relative stereo) gave a melting point of 198 °C.
`C/C=C\NC(=O)c1c(Cl)cccc1[Si](C)(C)C` showed a melting point of 101 to 102 °C.
`CN1Cc2c(C#N)ncn2-c2sccc2C1=O` gave a melting point of 197 to 200 °C.
`COc1ccc([C@]2(C)CNC(=O)O2)cc1OCC(C)C` gave a melting point of 93.7 °C.
In the case of `C#CC1(OCc2ccc(Cl)cc2F)CCN(C(C)=O)CC1`, the melting point is reported as 70 to 74 °C.
In the case of `CCCCCCCCOC(=O)C(CC(C)C)NC(=O)c1cc([N+](=O)[O-])cc([N+](=O)[O-])c1` (configuration not stated), the melting point is reported as 71 to 73 °C.
With `COc1cc(-c2ccccc2)n(-c2ccc(C)cc2)c1-c1ccccc1` the melting point was 157 to 158 °C.
`Cn1ccnc1Sc1ccc(Nc2c(C#N)cnc3cc(N4CCC(N5CCCC5)CC4)c(N)cc23)cc1Cl` gave a melting point of 265 to 267 °C.
`CC(C#N)(c1ccccc1)c1cccnn1` (configuration not stated) showed a melting point of 114 to 115 °C.
`CN1C(=O)C(c2ccc(OC(F)F)cc2)(c2ccc(F)c(OCCC=C(F)F)c2)N=C1N` (configuration not stated) showed a melting point of 139 to 140 °C.
In the case of `Cc1ccc(Nc2c(N3CCCC3)cc(C(=O)O)cc2S(N)(=O)=O)cc1`, the melting point is reported as 188 to 191 °C.
With `CC=CC=CC(=O)n1c(N)nc2ccccc21` the melting point was 215 °C.
`Brc1nccc2ncccc12` showed a melting point of 112 to 113 °C.
Work on `CC(C)c1ccn2nc(SCc3ccccc3)nc2n1` yielded a melting point of 65 to 66 °C.
For `O=S(=O)(Nc1cc(Cl)c(Oc2nc3ccc(Cl)cc3s2)c(Cl)c1)c1ccc(Cl)cc1Cl`, the melting point was 73 to 75 °C.
`CCN(CC)c1ccc(-c2cc(-c3ccc(C(=O)O)cc3)ccc2CCCO)cc1C(C)(C)C` showed a melting point of 95 °C.
In the case of `CC(C)(C)OC(=O)NCCSCC1(C)NC(=O)NC1=O` (configuration not stated), the melting point is reported as 134 to 136 °C.
With `C#Cc1cc(Nc2ncnc3cnc(NC(=O)CP(=O)(OCC)OCC)cc23)ccc1F` the melting point was 103 to 106 °C.
For `CC(=O)c1ccc(N2Cc3ccccc3C2=O)cc1`, the melting point was 235 to 237 °C.
With `Cn1nc(-c2cccs2)n(C)c1=O` the melting point was 108 to 110 °C.
Work on `Cc1cc(C)cc(C(=O)N2CCN(C(=O)CNC3CCN(Cc4ccc(-c5ccccc5)cc4)CC3)C(c3ccc(Cl)c(Cl)c3)C2)c1` (racemic) yielded a melting point of 87 to 89 °C.
Compound `O=C(Nc1cccc(Br)c1)Nc1cc(NC(=O)Nc2cccc(Br)c2)cc(C(=O)O)c1` has a melting point greater than 300 °C.
With `Cn1ncnc1COc1nc2c(cc1C(C)(C)C)nnn2-c1ccccc1F` the melting point was 115 to 117 °C.
With `O=C(O)C(=O)c1ccc(OCCOc2ccc3c(c2)CCCC3)cc1` the melting point was 144 to 145 °C.
Compound `Cc1nc(C)c(Cl)c(NCc2nccc(SCCCSCc3ccncc3)c2C)n1` has a melting point of 124 to 125 °C.
Compound `CC(C)(O)C#Cc1ccc(F)cc1` has a melting point of 124 °C.
`CCOC(=O)OC1=C(c2ccccc2)C(CCC(=O)O)OC1=O` (configuration not stated) gave a melting point of 139 to 141 °C.
For `O=C(c1ccccc1)c1cccc(NC(=O)C(Cl)CCl)c1` (configuration not stated), the melting point was 92 °C.
Compound `COc1cc(-c2cnc3[nH]cc(C(=O)CCC(C)OC)c3n2)cc(OC)c1OC` (configuration not stated) has a melting point of 150 to 151 °C.
`Cc1cc(C(=O)C(C)N2CCC(O)(c3ccccc3)CC2)ccc1OCc1ccccc1` (configuration not stated) showed a melting point of 98 to 99 °C.
With `CCOC(=O)c1nc(NC)sc1-c1ccccn1` the melting point was 120 to 121 °C.
In the case of `C=CCc1cccc2nc(Cc3ccccc3Cl)oc12`, the melting point is reported as 61 to 62 °C.
Work on `CCOC(=O)c1ccc(N)cc1-c1ccc(OC)c(OC)c1` yielded a melting point of 127 °C.
`CCN(CC)C(=O)NC(C)(CC)N=NC(C)(CC)NC(=O)N(CC)CC` (configuration not stated) gave a melting point of 215 to 220 °C.
Work on `CCCCCCC(C)N(C(C)=O)c1ccc(I)cc1` (configuration not stated) yielded a melting point of 60 to 62 °C.
`CCOC(=O)c1cnc2sc(-c3ccc(OC)cc3)c(CN(C)Cc3ccccc3)c2c1O` gave a melting point of 175 to 177 °C.
With `CCOC(=O)c1cccc(NC(=O)NCC(=O)N2[C@@H](C(=O)OCC)CC[C@H]2c2ccccc2)c1` (racemic) the melting point was 136 °C.
For `Nc1nc(N)c(-c2cc(Cl)cc(Cl)c2Cl)c(C(Cl)(Cl)Cl)n1`, the melting point was 226 to 227 °C.
For `CC(c1nnnn1C)C(O)(c1ccc(F)cc1)c1ccc(F)cc1` (configuration not stated), the melting point was 160 to 161 °C.
For `COc1ccccc1N1CCN(CCCOc2cc(C(=O)c3cc4ccccc4[nH]3)ccc2OCc2ccc(C)cc2)CC1`, the melting point was 126 to 128 °C.
For `COC(=O)C1(NC(=O)Cc2cc(C(C)=O)ccc2C)CCN(OC)CC1`, the melting point was 138 to 139 °C.
`O=c1c2c(oc3ccccc13)C=C2` showed a melting point of 68 to 70 °C.
With `CN1C(=O)CC(c2ccccc2)C1C(O)c1ccc(Br)s1` (configuration not stated) the melting point was 105 °C.
For `Nc1ccnc(Cl)c1Br`, the melting point was 146 °C.
Work on `O=C(NCc1nc2cnc3cc(Br)ccc3c2n1CC1CCOCC1)C1CC1` yielded a melting point of 140 °C.
Work on `CCCc1c(OCCCCCCc2ccc(OC)c(OC)c2Cl)ccc(C(=O)O)c1O` yielded a melting point of 107 to 108 °C.
Compound `CC(=O)Nc1cc2c3c(c1)[nH]c(=O)n3C[C@H](C)N(CC1CC1)C2` has a melting point of 244 °C.
With `COC(=O)C1=C(C(F)F)NC(C)=C(C(=O)OC(C)C)C1c1cccc(Cl)c1Cl` (configuration not stated) the melting point was 156 to 157 °C.
For `CS(=O)c1nnc(-c2cc(C(C)(C)C)c(O)c(C(C)(C)C)c2)s1` (configuration not stated), the melting point was 141 °C.
In the case of `CC(C)c1ccc2c(c1)c(S(=O)(=O)c1ccccc1)c(CC(C)(C)C(=O)O)n2Cc1ccc(N)cc1`, the melting point is reported as 290 °C.
Work on `COc1ccc(-c2noc3cc(OC)ccc23)c(C)c1` yielded a melting point of 126 to 128 °C.
With `CCOC(=O)C(=Cc1cccn2c([N+](=O)[O-])c(C)nc12)N=[N+]=[N-]` the melting point was 196 to 198 °C.
In the case of `CCCCCCCC(O)CC(=O)O` (configuration not stated), the melting point is reported as 55 to 56 °C.
Compound `Cc1cc(O)c(I)cc1C(=O)O` has a melting point of 143 to 150 °C.
`CCOC(=O)c1sc2ccc(O)cc2c1Cl` showed a melting point of 160 to 161 °C.
`Cc1ccc(Cn2c(NC3CCNCC3)nc3cnccc32)o1` gave a melting point of 186 °C.
For `CC(C)N1CCN(S(=O)(=O)c2cccc(NC(=O)Nc3ccc(C(F)(F)F)cc3)c2)CC1`, the melting point was 117 to 122 °C.
For `Cc1cccc(NC(=O)NC2N=C(c3ccccc3F)c3ccccc3N(Cc3cc(C(C)(C)C)ccn3)C2=O)c1` (racemic), the melting point was 142 to 144 °C.
Work on `COC(=O)C(=O)c1ccc(OCCOc2ccc3ccccc3c2)cc1C` yielded a melting point of 118 to 120 °C.
`O=C1CCC(c2cccc(F)c2)(c2cccc(F)c2)CC1` showed a melting point of 95 °C.
Work on `C=CC(=O)OCc1c2ccccc2cc2ccccc12` yielded a melting point of 120 to 125 °C.
Compound `Nc1c(NCCCOc2cc(CN3CCCCC3)ccn2)c(=O)c1=O` has a melting point of 226 to 228 °C.
Compound `CN(N)C(=O)Nc1ccccc1Oc1ccccc1` has a melting point of 117 to 119 °C.
Work on `O=C(c1ccc(Cl)cc1)c1c(Cl)cc(CBr)cc1Cl` yielded a melting point of 69 to 73 °C.
In the case of `CSC(SC)=C(C(O)C(C)(C)C)n1cncn1` (configuration not stated), the melting point is reported as 108 to 111 °C.
`CCCCc1nc2c(N)nc3ccccc3c2n1CCN1C(=O)NC2CSC(CCCCC(N)=O)C21` (configuration not stated) showed a melting point of 124 to 126 °C.
`CCC[C@H](NC(=O)Cc1cc(C)sc1C)C(=O)Nc1ncc(-c2ccccc2COCC)s1` gave a melting point of 84 °C.
Compound `CC(C)N1C(Oc2ccccc2[N+](=O)[O-])=NS(=O)(=O)N=C1Oc1ccccc1[N+](=O)[O-]` has a melting point of 259 to 263 °C.
For `CCN(C(=O)N1CCN(c2cc(C)cc(C)c2)CC1)c1cc(C)c(C)cc1OC`, the melting point was 80 to 82 °C.
`CC(=O)CCNC(=O)n1cc(F)c(=O)[nH]c1=O` showed a melting point of 158 to 159 °C.
`O=C(NCc1ccccn1)Nc1cc(N2C(=O)C3(CCCC3)c3ccccc32)ccn1` gave a melting point of 135 °C.
